Results: patent US20060142348A1, “Aryl sulfonamide peri-substituted bicyclics for occlusive artery disease” (deCODE Chemistry, Inc., priority 2004, published 2006)

Molecular target: T1, prostanoid EP3 receptors (Homo sapiens, UniProt P43115)
T1 sequence (P43115 1-365 isoform P43115-3): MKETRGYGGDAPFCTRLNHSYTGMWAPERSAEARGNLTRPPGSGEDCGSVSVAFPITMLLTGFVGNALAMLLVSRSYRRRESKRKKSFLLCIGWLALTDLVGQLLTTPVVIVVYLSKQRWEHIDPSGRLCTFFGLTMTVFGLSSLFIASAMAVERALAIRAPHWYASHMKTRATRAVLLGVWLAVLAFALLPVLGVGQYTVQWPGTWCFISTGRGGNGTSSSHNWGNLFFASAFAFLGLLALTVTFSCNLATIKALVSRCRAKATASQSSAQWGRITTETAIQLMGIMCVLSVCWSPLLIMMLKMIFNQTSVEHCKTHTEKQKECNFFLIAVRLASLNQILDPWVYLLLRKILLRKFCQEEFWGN
Assay: binding on prostanoid EP3 receptors (method of Abramovitz et al.)
Conditions: read-out: Activity (EP3 receptor binding IC50)
Experimental: The compounds of the invention may be assayed for their binding on prostanoid EP3 receptors according to the method of Abramovitz et al. [Bioch. Biophys. Actas 1473, 285-293 (2000)]. All of the examples in the tables below have been synthesized, characterized and tested for EP3 receptor binding.
The compounds of the invention were assayed for their binding on prostanoid EP3 receptors according to the method of Abramovitz et al. [Bioch. Biophys. Acta, 1473, 285-293 (2000)]. […] Compounds with IC50<1 μM are shown as +++; compounds with IC50<1-10 μM are shown as ++; and compounds with IC50>10 μM are shown as +.

Row | IC50 [nM] | Structure (SMILES)
1 | 1000 to 10000 | Cn1cc(-c2csc(NS(=O)(=O)c3ccc(F)c(F)c3)n2)c2c(Oc3ccc4ccccc4c3)cccc21 [Compound B44, 3,4-Difluoro-N-{4-[1-methyl-4-(naphthalen-2-yloxy)-1H-indol-3-yl]-thiazol-2-yl}-benzenesulfonamide]
2 | 1000 to 10000 | Cn1cc(Cc2ccc3ccccc3c2)c2c(-c3cccc(NS(=O)(=O)c4cc(Cl)c(Cl)s4)c3)cccc21 [Compound B03, 4,5-Dichloro-thiophene-2-sulfonic acid[3-(1-methyl-3-naphthalen-2-ylmethyl-1H-indol-4-yl)-phenyl]-amide]
3 | < 1000 | Cc1cn(Cc2ccc3ccccc3c2)c2c(-c3cc(NS(=O)(=O)c4ccc(Cl)c(Cl)c4)no3)cc(F)cc12 [Compound B40, 3,4-Dichloro-N-[5-(5-fluoro-3-methyl-1-naphthalen-2-ylmethyl-1H-indol-7-yl)-isoxazol-3-yl]-benzenesulfonamide]
4 | > 10000 | Cc1cn(Cc2ccc(F)c(F)c2)c2c(-c3cc(NS(C)(=O)=O)no3)cc(F)cc12 [Compound B16, N-{5-[1-(3,4-Difluoro-benzyl)-5-fluoro-3-methyl-1H-indol-7-yl]-isoxazol-3-yl}-methanesulfonamide]
5 | 1000 to 10000 | Cc1cn(Cc2ccc(F)c(F)c2)c2c(-c3cc(NS(=O)(=O)c4cc(Cl)c(Cl)s4)n(C)n3)cc(F)cc12 [Compound B15, 4,5-Dichloro-thiophene-2-sulfonic acid {5-[1-(3,4-difluoro-benzyl)-5-fluoro-3-methyl-1H-indol-7-yl]-2-methyl-2H-pyrazol-3-yl}-amide]
6 | 1000 to 10000 | Cc1cn(Cc2ccc(Cl)cc2Cl)c2c(-c3nnc(NC(=O)C(F)(F)F)o3)cc(F)cc12 [Compound B10, N-{5-[1-(2,4-Dichloro-benzyl)-5-fluoro-3-methyl-1H-indol-7-yl]-[1,3,4]oxadiazol-2-yl}-2,2,2-trifluoro-acetamide]

The next lines start with the molecule.

Row | Structure (SMILES) | IC50 [nM]
7 | Cc1cn(Cc2ccc(Cl)cc2Cl)c2c(-c3ccc(NS(=O)(=O)c4cc(Cl)c(Cl)s4)nc3)cc(F)cc12 [Compound B46, 4,5-Dichloro-thiophene-2-sulfonic acid {5-[1-(2,4-dichloro-benzyl)-5-fluoro-3-methyl-1H-indol-7-yl]-pyridin-2-yl}-amide] | < 1000
8 | Cc1cn(Cc2ccc(Cl)cc2Cl)c2c(-c3nnc(NC(=O)c4ccc(Cl)cc4Cl)o3)cc(F)cc12 [Compound B28, 2,4-Dichloro-N-{5-[1-(2,4-dichloro-benzyl)-5-fluoro-3-methyl-1H-indol-7-yl]-[1,3,4]oxadiazol-2-yl}-benzamide] | 1000 to 10000
9 | Cc1cn(Cc2ccc(Cl)cc2Cl)c2c(-c3nnc(NC(=O)c4cc(Cl)cc(Cl)c4)o3)cc(F)cc12 [Compound B25, 3,5-Dichloro-N-{5-[1-(2,4-dichloro-benzyl)-5-fluoro-3-methyl-1H-indol-7-yl]-[1,3,4]oxadiazol-2-yl}-benzamide] | > 10000
10 | Cc1cn(Cc2ccc(F)c(F)c2)c2c(-c3cc(NS(C)(=O)=O)n(C)n3)cc(F)cc12 [Compound B14, N-{5-[1-(3,4-Difluoro-benzyl)-5-fluoro-3-methyl-1H-indol-7-yl]-2-methyl-2H-pyrazol-3-yl}-methanesulfonamide] | 1000 to 10000
11 | Cc1cn(Cc2ccc(F)c(F)c2)c2c(-c3ccc(NS(=O)(=O)C(F)(F)F)cc3)cc(F)cc12 [Compound B07, N-{4-[1-(3,4-Difluoro-benzyl)-5-fluoro-3-methyl-1H-indol-7-yl]-phenyl}-C,C,C-trifluoro-methanesulfonamide] | > 10000
12 | Cn1cc(Cc2ccc3ccccc3c2)c2c(-c3ccc(NS(=O)(=O)c4cc(Cl)c(Cl)s4)cc3)cccc21 [Compound B04, 4,5-Dichloro-thiophene-2-sulfonic acid[4-(1-methyl-3-naphthalen-2-ylmethyl-1H-indol-4-yl)-phenyl]-amide] | 1000 to 10000
13 | Cc1cn(Cc2ccc(Cl)cc2Cl)c2c(-c3nnc(NS(=O)(=O)c4ccc(Cl)c(Cl)c4)o3)cc(F)cc12 [Compound B20, 3,4-Dichloro-N-{5-[1-(2,4-dichloro-benzyl)-5-fluoro-3-methyl-1H-indol-7-yl]-[1,3,4]oxadiazol-2-yl}-benzenesulfonamide] | < 1000
14 | Cc1cn(Cc2ccc(Cl)cc2Cl)c2c(-c3nnc(NS(=O)(=O)c4cc(Cl)c(Cl)s4)o3)cc(F)cc12 [Compound B13, 4,5-Dichloro-thiophene-2-sulfonic acid {5-[1-(2,4-dichloro-benzyl)-5-fluoro-3-methyl-1H-indol-7-yl]-[1,3,4]oxadiazol-2-yl}-amide] | < 1000
15 | Cn1cc(Cc2ccc3ccccc3c2)c2c(-c3ccc(NC(=O)C(F)(F)F)cc3)cccc21 [Compound B18, 2,2,2-Trifluoro-N-[4-(1-methyl-3-naphthalen-2-ylmethyl-1H-indol-4-yl)-phenyl]-acetamide] | < 1000
